Source: patent US9637470B2, “Treatment for substance use disorders and stress disorders” (Baylor College of Medicine, priority 2013, dated 2017)

Columns and labels:
[1] = target: T1, human recombinant dopamine transporter (Homo sapiens, UniProt Q01959); conditions: at 100 nM; cited from earlier work
T1 construct: expressed in transfected cells; host or cells: CHO-K1

[2] = target: T2, human serotonin transporter (Homo sapiens, UniProt P31645); test: Serotonin transporter reuptake inhibition assay (prior art); assay type: cell-based; conditions: at 100 nM; across serotonin, norepinephrine, and dopamine transporters
T2 construct: expressed in transfected cells; host or cells: HEK-293
Method: Serotonin transporter reuptake inhibition was assayed using the method described by Gu H. et al., J Biol Chem., 1994, 269, p […], the entire contents of which are incorporated herein by reference. Recombinant HEK-293 cells with human serotonin transporter were plated. Test compounds were pre-incubated with cells (2×10^5/ml) in modified Tris-HEPES buffer at pH 7.1 for 20 min at 25° C. and were incubated for an additional 10 min after addition of 65 nM of [3H]Serotonin. Bound cells were filtered and counted to determine [3H]Serotonin uptake. Reduction of [3H]Serotonin uptake by 50 percent or more (≧50%) relative to 10 μM fluoxetine indicated significant inhibitory activity.

[3] = target: T2, human serotonin transporter; conditions: at 100 nM; cited from earlier work
[4] = target: T3, human recombinant norepinephrine transporter (Homo sapiens, UniProt P23975); conditions: at 100 nM; cited from earlier work
T3 construct: expressed in transfected cells; host or cells: MDCK

humans = conditions: cited from earlier work

T2 sequence (P31645 whole entry): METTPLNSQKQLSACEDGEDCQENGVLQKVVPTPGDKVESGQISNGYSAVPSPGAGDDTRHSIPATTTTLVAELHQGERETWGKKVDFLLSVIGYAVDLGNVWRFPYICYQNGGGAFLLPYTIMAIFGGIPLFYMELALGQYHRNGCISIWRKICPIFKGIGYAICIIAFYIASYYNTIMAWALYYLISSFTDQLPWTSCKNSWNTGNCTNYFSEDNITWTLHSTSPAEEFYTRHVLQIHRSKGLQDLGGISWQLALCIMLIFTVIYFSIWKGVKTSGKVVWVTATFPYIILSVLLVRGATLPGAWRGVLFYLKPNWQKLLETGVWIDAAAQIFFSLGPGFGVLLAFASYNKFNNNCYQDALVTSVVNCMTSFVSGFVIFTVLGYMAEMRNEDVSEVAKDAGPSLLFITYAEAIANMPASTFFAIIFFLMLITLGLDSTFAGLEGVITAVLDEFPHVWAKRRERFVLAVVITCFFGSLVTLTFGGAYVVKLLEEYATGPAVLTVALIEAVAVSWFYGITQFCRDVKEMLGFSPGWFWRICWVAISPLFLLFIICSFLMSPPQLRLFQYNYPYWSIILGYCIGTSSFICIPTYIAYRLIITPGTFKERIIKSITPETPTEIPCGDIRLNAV
T1 sequence (Q01959 whole entry): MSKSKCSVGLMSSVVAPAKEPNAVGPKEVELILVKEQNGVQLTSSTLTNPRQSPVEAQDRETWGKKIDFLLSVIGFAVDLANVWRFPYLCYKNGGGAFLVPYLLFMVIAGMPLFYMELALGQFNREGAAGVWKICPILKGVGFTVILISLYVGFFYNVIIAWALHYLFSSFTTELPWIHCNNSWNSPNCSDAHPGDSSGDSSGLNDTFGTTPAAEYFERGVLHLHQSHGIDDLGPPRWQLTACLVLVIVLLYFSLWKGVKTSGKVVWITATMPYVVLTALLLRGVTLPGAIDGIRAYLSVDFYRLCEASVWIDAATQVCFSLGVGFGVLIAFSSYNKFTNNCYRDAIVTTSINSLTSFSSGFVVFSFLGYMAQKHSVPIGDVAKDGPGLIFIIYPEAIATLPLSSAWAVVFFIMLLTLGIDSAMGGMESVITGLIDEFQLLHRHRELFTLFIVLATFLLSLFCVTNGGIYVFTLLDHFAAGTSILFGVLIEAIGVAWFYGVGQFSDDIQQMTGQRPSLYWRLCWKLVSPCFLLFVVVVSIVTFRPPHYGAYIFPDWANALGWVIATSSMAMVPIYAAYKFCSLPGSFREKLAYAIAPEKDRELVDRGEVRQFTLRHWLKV
T3 sequence (P23975 whole entry): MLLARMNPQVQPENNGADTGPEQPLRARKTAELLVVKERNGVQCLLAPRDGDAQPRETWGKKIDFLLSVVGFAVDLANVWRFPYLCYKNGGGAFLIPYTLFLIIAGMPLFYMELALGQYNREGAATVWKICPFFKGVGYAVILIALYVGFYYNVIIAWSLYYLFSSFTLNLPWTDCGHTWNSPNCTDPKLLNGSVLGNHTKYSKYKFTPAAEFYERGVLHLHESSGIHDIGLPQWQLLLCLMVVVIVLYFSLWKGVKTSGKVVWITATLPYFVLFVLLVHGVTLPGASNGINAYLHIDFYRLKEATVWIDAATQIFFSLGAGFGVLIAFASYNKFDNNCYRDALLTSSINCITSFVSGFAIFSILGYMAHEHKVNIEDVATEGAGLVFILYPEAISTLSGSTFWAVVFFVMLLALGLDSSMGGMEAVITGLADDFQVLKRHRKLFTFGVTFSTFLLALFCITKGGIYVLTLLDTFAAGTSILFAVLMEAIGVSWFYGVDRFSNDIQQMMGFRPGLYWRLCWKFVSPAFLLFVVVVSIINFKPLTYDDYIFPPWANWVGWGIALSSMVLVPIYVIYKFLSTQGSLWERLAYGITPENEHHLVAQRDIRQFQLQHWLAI

Row | Structure (SMILES) | reuptake inhibition percentage, dopamine transporter [1] | subtractive difference of reuptake inhibition percentages, at most [2] | reuptake inhibition percentage, serotonin transporter [3] | reuptake inhibition percentage, norepinephrine transporter [4] | positive subjective effects in humans (comparators) (humans)
1 | c1ccc2cc([C@H]([C@H]3CCCNC3)n3nccn3)ccc2c1 [Example Compound 14, (3S)-3-[(S)-naphthalen-2-yl(2H-1,2,3-triazol-2-yl)methyl]piperidine] | 52% | 24% | 76% | 70% | –
2 | Clc1ccc([C@]23CNCC2C3)cc1Cl (stereo partly drawn) [amitifadine] | – | – | – | – | does not produce positive subjective effects
3 | CCOC[C@@H]1[C@@H](c2ccc(Cl)c(Cl)c2)C[C@@H]2CC[C@H]1N2C [tesofensine] | – | – | – | – | does not produce positive subjective effects
